The values below come from patent US20240238301A1, “COMPOSITIONS AND METHODS FOR REDUCED TOXICITY IN TRANSPLANTATION USING JANUS KINASE (JAK) INHIBITORS” (THE REGENTS OF THE UNIVERSITY OF COLORADO, A BODY CORPORATE, priority 2021, published 2024).

SMILES strings stand for the structures.

For data set [1] the following is noted: manufacturer reported; cited from earlier work.
Data set [2] has as its system C57BL/6 recipients and Balb/cJ donors. As to the kind of experiment: MHC-mismatched allogeneic BMT, donor cell engraftment by FACS of peripheral blood (C57BL/6 recipients, Balb/cJ donors). The format is in vivo, mice. The settings on record: 6.5 Gy RIC TBI. Here is the method:
(§1) In one exemplary method, mouse models of human allogeneic bone marrow transplant events were prepared. In brief, major histocompatibility complex (MHC)-mismatched bone marrow transplants (BMTs, HCT)—which model human allogeneic BMTs—were performed in mice. Mice used in this exemplary method were the C57BL/6 mouse strain (which express the MHC marker H2K^b) and the Balb/cJ strain (which express the MHC marker H2K^d). Both mouse strains were maintained by homozygous breeding according to established vivarium practices. Mice approximately 6-10 weeks of age were used for both recipients and donors. Donors and recipients were matched in gender (male recipient mice receive cells from male donors while female recipients receive cells from female donors).
(§2) In another exemplary method, BMT was performed by isolating bone marrow cells from the bones of euthanized donor mice using a method similar to previous methods (Amend et al., J Vis Exp. 2016 Apr. 14; (110):53936). […] Viable cells (which excluded Trypan Blue) were counted using a hematocytometer. […] Stained cells were resuspended in PBS and evaluated via Fluorescent-Activated Cell Sorting (FACS) on a Cytek Aurora cytometer. FACS data was analyzed using FloJo software. […] Cells which were negative for Ter119 (RBCs) and positive for CD45 (hematopoietic cells) were further analyzed. […]

The subject of data set [3] is recipient and donor NK and T cells (mouse spleen cells). Kind of data set: Effect on recipient versus donor NK and T cells in spleen after BMT (FACS). The format is in vivo, mice. The settings on record: spleen cells after BMT (data not shown). As to the method:
In another exemplary method, BMTs were performed and assessed to determine the effects of JAK inhibitors on recipient compared to donor NK and T cells as outlined in FIG. 6. In this exemplary method, BMTs were performed in mice as described in Example 1 wherein C57BL/6 mice were the transplant donors while Balb/cJ mice served as stem cell recipients. Recipient mice were treated with Ruxolitinib and given RIC TBI followed by BMT as previously described in the examples herein. On Day +1 and Day +3 post-BMT, a portion of the recipient mice were euthanized, and their spleens were harvested. The spleen cells were prepared into a single cell suspension, subjected to RBC lysis, stained (using previously referenced markers in addition to T-cell subset markers, CD4 and CD8) and analyzed by FACS as described in the examples herein.

Data set [4] has as its system Balb/cJ recipients and C57BL/6 donors. As to the kind of experiment: MHC-mismatched allogeneic BMT, donor cell engraftment by FACS of peripheral blood (Balb/cJ recipients, C57BL/6 donors). Format: in vivo, mice. The settings on record: 4 Gy RIC TBI, 90 mg/kg oral gavage twice daily Day -5 through Day +2, 4 weeks post-BMT, n=7. Here is the method:
as §1, §2
Background: A flow cytometer gives signals particle by particle.

Consider `N#CC[C@H](C1CCCC1)n1cc(-c2ncnc3[nH]ccc23)cn1` [Ruxolitinib phosphate], for which, in data set [1], the “solubility in DMSO” value is 200 mg/mL.
For `N#CC[C@H](C1CCCC1)n1cc(-c2ncnc3[nH]ccc23)cn1` [ruxolitinib], the “donor cell engraftment (mice engrafted)” value in data set [2] (180 mg/kg Day -5 through Day +2, 4 weeks post-BMT, n=6) is on record as 100%; in data set [2] (270 mg/kg Day -5 through Day +2, 4 weeks post-BMT, n=3), 100%; in data set [4], 100%. Besides, the “effect on donor T cells” value in data set [3] was “no significant effect”.
